Values joined by “and” are separate entries in the source; they are usually repeats but may differ in a detail not shown here. Equal entries are not always repeated. Where two headings read alike, the source gives them in different places. Ends that are not written are not given here. Peptide text beside a SMILES is read from it. * marks the point of attachment. Fluorescein(5-NHCOCH2) = O=C(C*)Nc1ccc2c(c1)C(=O)OC21c2ccc(O)cc2Oc2cc(O)ccc21
Key:
Calmodulin = biological target: T1, Calmodulin (Homo sapiens, UniProt P0DP23); assay: Fluorescence polarization specificity, calmodulin; type: binding; details: calmodulin as target protein; read-out: Kd CalM
T1 construct: purchased Sigma
Source text: (§1) Given the myriad protein surfaces present in the cell, the utility of molecules that recognize protein surfaces will depend on their ability to interact selectively with the desired protein.

Carbonic anhydrase II = biological target: T2, Carbonic anhydrase II (Homo sapiens, UniProt P00918); assay: Fluorescence polarization specificity, carbonic anhydrase II; type: binding; details: carbonic anhydrase II as target protein; read-out: Kd CA
T2 construct: purchased Sigma
Source text: as §1

[1] = biological target: T3, HisKIX (His-tagged CBP KIX domain) (Mus musculus, UniProt P45481); assay: Equilibrium fluorescence polarization, HisKIX binding; details: 25° C.
T3 construct: The CBP KIX-coding region (residues 586 to 672) of pGEX-KT KIX 10-672; made in house; host or cells: E. coli BL21(DE3) pArg

CBP KIX K662A = biological target: T4, CBP KIX K662A (Mus musculus, UniProt P45481, K662A); assay: Equilibrium fluorescence polarization, CBP KIX variant K662A; type: binding; details: 25° C.
T4 construct: made in house; host or cells: E. coli BL21(DE3) pArg

CBP KIX Y658A = biological target: T5, CBP KIX Y658A (Mus musculus, UniProt P45481, Y658A); assay: Equilibrium fluorescence polarization, CBP KIX variant Y658A; type: binding; details: 25° C.
T5 construct: made in house; host or cells: E. coli BL21(DE3) pArg

CBP KIX K606A = biological target: T6, CBP KIX K606A (Mus musculus, UniProt P45481, K606A); assay: Equilibrium fluorescence polarization, CBP KIX variant K606A; type: binding; details: 25° C.
T6 construct: made in house; host or cells: E. coli BL21(DE3) pArg

CBP KIX wild type = biological target: T7, CBP KIX wild type (Mus musculus, UniProt P45481); assay: Equilibrium fluorescence polarization, wild type CBP KIX; type: binding; details: 25° C.
T7 construct: made in house; host or cells: E. coli BL21(DE3) pArg

GST-KIX = biological target: T8, GST-KIX (Mus musculus, UniProt P45481); assay: Fluorescence polarization, wild type GST-KIX; type: binding
T8 construct: pGST-ΔKIX(588-683) (a gift from Jennifer Nyborg); made in house; host or cells: E. coli BL21(DE3) pArg

CBP KIX I657A = biological target: T9, CBP KIX I657A (Mus musculus, UniProt P45481, I657A); assay: Equilibrium fluorescence polarization, CBP KIX variant I657A; type: binding; details: 25° C.
T9 construct: made in house; host or cells: E. coli BL21(DE3) pArg

CBP KIX I660A = biological target: T10, CBP KIX I660A (Mus musculus, UniProt P45481, I660A); assay: Equilibrium fluorescence polarization, CBP KIX variant I660A; type: binding; details: 25° C.
T10 construct: made in house; host or cells: E. coli BL21(DE3) pArg

CBP KIX Q661A = biological target: T11, CBP KIX Q661A (Mus musculus, UniProt P45481, Q661A); assay: Equilibrium fluorescence polarization, CBP KIX variant Q661A; type: binding; details: 25° C.
T11 construct: made in house; host or cells: E. coli BL21(DE3) pArg

CBP KIX LL652-3AA = biological target: T12, CBP KIX LL652-3AA (Mus musculus, UniProt P45481, L652A/L653A); assay: Equilibrium fluorescence polarization, CBP KIX variant LL652-3AA; type: binding; details: 25° C.
T12 construct: made in house; host or cells: E. coli BL21(DE3) pArg

CBP KIX Y658F = biological target: T13, CBP KIX Y658F (Mus musculus, UniProt P45481, Y658F); assay: Equilibrium fluorescence polarization, CBP KIX variant Y658F; type: binding; details: 25° C.
T13 construct: made in house; host or cells: E. coli BL21(DE3) pArg

CBP KIX L603A = biological target: T14, CBP KIX L603A (Mus musculus, UniProt P45481, L603A); assay: Equilibrium fluorescence polarization, CBP KIX variant L603A; type: binding; details: 25° C.
T14 construct: made in house; host or cells: E. coli BL21(DE3) pArg

CBP KIX L599A = biological target: T15, CBP KIX L599A (Mus musculus, UniProt P45481, L599A); assay: Equilibrium fluorescence polarization, CBP KIX variant L599A; type: binding; details: 25° C.
T15 construct: made in house; host or cells: E. coli BL21(DE3) pArg

CBP KIX E655A = biological target: T16, CBP KIX E655A (Mus musculus, UniProt P45481, E655A); assay: Equilibrium fluorescence polarization, CBP KIX variant E655A; type: binding; details: 25° C.
T16 construct: made in house; host or cells: E. coli BL21(DE3) pArg

CBP KIX Y650A = biological target: T17, CBP KIX Y650A (Mus musculus, UniProt P45481, Y650A); assay: Equilibrium fluorescence polarization, CBP KIX variant Y650A; type: binding; details: 25° C.
T17 construct: made in house; host or cells: E. coli BL21(DE3) pArg

KIX = details: various techniques; isothermal titration calorimetry for KID(129-149)^P; read-out: previously reported Kd of KID^P·KIX complexes; cited from earlier work
KIX, sequence (Q92793 587-673 limits assumed): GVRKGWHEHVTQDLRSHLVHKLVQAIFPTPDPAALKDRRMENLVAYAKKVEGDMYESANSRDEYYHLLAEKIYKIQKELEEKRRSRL

T3 sequence (P45481 586-672): as the sequence (Q92793 587-673 limits assumed) above
T16 sequence (P45481 586-665 E655A limits assumed): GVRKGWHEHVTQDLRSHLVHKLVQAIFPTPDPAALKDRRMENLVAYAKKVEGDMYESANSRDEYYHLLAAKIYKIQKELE
T12 sequence (P45481 586-665 L652A/L653A): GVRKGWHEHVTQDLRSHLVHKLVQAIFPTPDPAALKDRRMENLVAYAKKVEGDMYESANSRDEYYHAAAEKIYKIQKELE
T10 sequence (P45481 586-665 I660A limits assumed): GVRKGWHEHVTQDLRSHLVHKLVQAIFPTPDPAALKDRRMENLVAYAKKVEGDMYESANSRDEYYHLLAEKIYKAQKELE
T6 sequence (P45481 586-665 K606A limits assumed): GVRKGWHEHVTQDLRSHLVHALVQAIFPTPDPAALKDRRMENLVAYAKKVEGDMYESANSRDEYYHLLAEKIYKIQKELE
T14 sequence (P45481 586-665 L603A limits assumed): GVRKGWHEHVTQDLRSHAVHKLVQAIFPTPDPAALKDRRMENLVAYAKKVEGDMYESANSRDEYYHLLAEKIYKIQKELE
T17 sequence (P45481 586-665 Y650A limits assumed): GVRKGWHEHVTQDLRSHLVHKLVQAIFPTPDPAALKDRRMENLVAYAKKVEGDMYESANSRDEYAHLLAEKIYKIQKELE
T4 sequence (P45481 586-665 K662A limits assumed): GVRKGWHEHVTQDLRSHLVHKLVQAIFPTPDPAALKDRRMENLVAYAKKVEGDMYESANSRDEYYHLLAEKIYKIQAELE
T9 sequence (P45481 586-665 I657A limits assumed): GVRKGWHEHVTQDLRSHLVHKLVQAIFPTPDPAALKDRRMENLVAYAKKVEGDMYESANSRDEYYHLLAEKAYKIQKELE
T7 sequence (P45481 586-665 limits assumed): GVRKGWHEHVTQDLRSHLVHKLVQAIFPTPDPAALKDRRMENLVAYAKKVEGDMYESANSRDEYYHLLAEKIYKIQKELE
T11 sequence (P45481 586-665 Q661A limits assumed): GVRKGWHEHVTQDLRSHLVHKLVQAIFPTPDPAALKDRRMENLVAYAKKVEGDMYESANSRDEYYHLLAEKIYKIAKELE
T15 sequence (P45481 586-665 L599A limits assumed): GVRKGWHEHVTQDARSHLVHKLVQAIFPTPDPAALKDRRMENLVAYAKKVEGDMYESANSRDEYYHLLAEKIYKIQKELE
T13 sequence (P45481 586-665 Y658F limits assumed): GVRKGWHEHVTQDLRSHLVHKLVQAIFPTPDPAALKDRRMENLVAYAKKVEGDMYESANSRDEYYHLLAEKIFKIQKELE
T5 sequence (P45481 586-665 Y658A limits assumed): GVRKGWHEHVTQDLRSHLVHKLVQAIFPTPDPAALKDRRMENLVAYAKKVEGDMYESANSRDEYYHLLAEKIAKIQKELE
T8 sequence (P45481 588-683): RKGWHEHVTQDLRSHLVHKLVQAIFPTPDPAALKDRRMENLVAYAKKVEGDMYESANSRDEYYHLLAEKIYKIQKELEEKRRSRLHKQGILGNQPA

Kd (Calmodulin)	Kd (Carbonic anhydrase II)	Kd ([1]; fluorescein-labeled phosphopeptide, read-out: Kd HisKIX, phosphorylated peptide (P))	Kd ([1]; label shows phosphorylated (P) or unphosphorylated (U) form, read-out: Kd HisKIX)	Kd (CBP KIX K662A)	Kd (CBP KIX Y658A)	Kd (CBP KIX K606A)	Kd (CBP KIX wild type)	Kd (GST-KIX)	Kd (CBP KIX I657A)	Kd (CBP KIX I660A)	Kd (CBP KIX Q661A)	Kd (CBP KIX LL652-3AA)	Kd (CBP KIX Y658F)	Kd (CBP KIX L603A)	Kd (CBP KIX L599A)	Kd (CBP KIX E655A)	Kd (CBP KIX Y650A)	Molecule	Kd (KIX)
≥ 168000 nM	79000 ± 13000 nM	624 ± 49 nM	1500 to 3100 nM and 1500 nM	1800 ± 300 nM	1700 ± 400 nM	1200 ± 100 nM	540 ± 60 nM	714 ± 128 nM	3600 ± 400 nM	6100 ± 700 nM	410 ± 60 nM	140 ± 20 nM	2800 ± 400 nM	2500 ± 300 nM	3300 ± 300 nM	1700 ± 200 nM	1300 ± 200 nM	CC[C@H](C)[C@H](NC(=O)CN)C(=O)N[C@@H](CO)C(=O)N[C@@H](Cc1c[nH]c2ccccc12)C(=O)N1CCC[C@H]1C(=O)N[C@H](C(=O)N[C@@H](Cc1ccccc1)C(=O)N[C@@H](CCC(=O)O)C(=O)NCC(=O)N[C@@H](CC(=O)O)C(=O)N[C@@H](CC(=O)O)C(=O)N[C@@H](C)C(=O)N1CCC[C@H]1C(=O)N[C@H](C(=O)N[C@@H](CCCNC(=N)N)C(=O)N[C@@H](CCCNC(=N)N)C(=O)N[C@@H](CC(C)C)C(=O)N[C@@H](CO)C(=O)N[C@@H](Cc1ccccc1)C(=O)N[C@@H](Cc1ccccc1)C(=O)N[C@@H](Cc1ccc(O)cc1)C(=O)N[C@H](C(=O)N[C@@H](CC(C)C)C(=O)N[C@@H](CC(C)C)C(=O)N[C@@H](CC(=O)O)C(=O)N[C@@H](CC(C)C)C(=O)N[C@@H](Cc1ccc(O)cc1)C(=O)N[C@@H](CC(C)C)C(=O)N[C@@H](CC(=O)O)C(=O)N[C@@H](C)C(=O)N1CCC[C@H]1C(=O)NCC(=O)N[C@H](C(=O)N[C@@H](CSCC(=O)Nc1ccc2c(c1)C(=O)OC21c2ccc(O)cc2Oc2cc(O)ccc21)C(N)=O)C(C)C)[C@@H](C)CC)C(C)C)[C@@H](C)O [PPKID6] (H-GISWPTFEGDDAPVRRLSFFYILLDLYLDAPGVC(Fluorescein(5-NHCOCH2))-NH2)	–
–	–	–	–	–	–	–	–	–	–	–	–	–	–	–	–	–	–	KID(129-149)^P: phosphorylated CREB KID residues 129-149, literature (SDAPGVPRIEEEKSEEETSAP; also: phosphorylated, sites not given here; UniProt P16220 129-149, looked up, fragment)	80000 nM
